Laboratory results as given in article PMC11923649, “Novel C-2 Aromatic Heterocycle-Substituted Triterpenoids Inhibit Hedgehog Signaling in GLI1 Overexpression Cancer Cells” (ACS Omega, 2025).

Tests used:
[1] = system: K562 (chronic myelogenous leukemia); assay: MTS cytotoxicity assay, 72 h, K562; assay type: cell-based; conditions: Homo sapiens, Table 1
Procedure, shortened: (§1)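 Treatment ran 72 h at 37 °C under 5% CO2, starting the day after plating, across 50–0.0975 μmol/L (dilution factor 2). Metabolic conversion of MTS was read at 490 nm to obtain IC50.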

K562-TAX = assay: MTS cytotoxicity assay, 72 h, K562-TAX; assay type: cell-based
HCT 116 = assay: MTS cytotoxicity assay, 72 h, HCT 116; assay type: cell-based; conditions: Homo sapiens, HCT-116, 72 h
Procedure, shortened: as §1

HCT116 p53–/– = assay: MTS cytotoxicity assay, 72 h, HCT116 p53–/–; assay type: cell-based; conditions: Homo sapiens, HCT-116, 72 h
Procedure, shortened: as §1

[2] = system: Gli1 protein in A549 cells; assay: Western blot of Gli1 in A549 cells, 24 h; assay type: cell-based, human; conditions: A549, 24 h, immunoblot
Procedure: In order to verify that compounds 11a and 11b inhibit the proliferation of A549 and DU-145 through Hh inhibition, we monitored the expression of Hh target genes in these cell lines (Figure 2). […] The decreased protein expression of Gli1 targets Cyclin D1, N-Myc, and Bcl-2 strongly indicates inhibition of its transcriptional activity, and their downregulation correlates with the data obtained by the U-87 MG-Gli-FLuc reporter assay. Importantly, these proteins are involved in cell cycle progression, proliferation, and survival. N-Myc amplification or deregulation of transcription, stability, and degradation is associated with many malignancies,[34] and the observed downregulation induced by 11a and 11b may reduce its oncogenic effect.
Figure 2 Effect of compounds 11a and 11b on the protein expression of the Gli1 transcription factor and its transcriptional targets in A549 (A) and DU145 (B) cells following 24 h of incubation. […]
Cells were washed with PBS and lysed on ice in 200 μL of RIPA (Radioimmunoprecipitation Assay) buffer for 30 min. Then, cell lysates were clarified by centrifugation (15000 rpm, 20 min, 4 °C), and the protein concentration in the collected supernatants was determined using a BCA method (Bicinchoninic Acid test). […] Luminescence signal detection was performed by using an Odyssey FC instrument (LI-COR Biosciences).

Plasma stability = assay type: in vitro ADME; conditions: human plasma
[3] = Caco-2 permeability assay; assay type: in vitro ADME; conditions: human, Caco-2; for Papp A→B: cm/s, read-out: Caco-2 Papp (×10^−6)
Description: (§2) The Parallel Artificial Membrane Permeability Assay (PAMPA) has emerged as a primary screen for determining passive transcellular permeability. […] The Caco-2 and MDCK-MDR1 permeability assays are established models of intestinal[37] and blood-brain barriers, respectively.[38]

Caco-2 monolayer = assay: Caco-2 permeability assay; assay type: in vitro ADME
Description: as §2

MDR1 = assay: Caco-2 permeability assay; assay type: in vitro ADME; conditions: human, Caco-2; B–A / A–B
Description: as §2

Compound | IC50 [1] | IC50 (K562-TAX; Table 1) | IC50 (K562-TAX; full Table S1) | IC50 (HCT 116; Table 1) | IC50 (HCT 116; full Table S1) | IC50 (HCT116 p53–/–; Table 1) | IC50 (HCT116 p53–/–; full Table S1) | Endogenous Gli1 protein level [2] | Plasma stability % Compound remaining 15 min (Plasma stability) | Plasma stability % Compound remaining 30 min (Plasma stability) | Plasma stability % Compound remaining 60 min (Plasma stability) | recovery [3] | Papp A→B [3] | Caco-2 Active efflux (Caco-2 monolayer) | efflux ratio (MDR1)
C=C(C)[C@@H]1CC[C@]2(C(=O)O)CC[C@]3(C)C(CCC4[C@@]5(C)C=C(c6ccoc6)C(=O)C(C)(C)C5CC[C@]43C)C12 (stereo partly drawn) [Compound 11b, 2-(Furan-3-yl)-3-oxolupa-1,20(29)-dien-28-oic acid] | 9.6 µM | 16 µM | 15.8 µM | 20 µM | 19.9 µM | 14 µM | 13.5 µM | inhibit the endogenous Gli1 protein level in a dose-dependent manner | 103% | 104% | 103% | 58.2% | 1.07 ×10⁻⁶ cm/s | No (less than or very close to the limit of active and passive efflux (≤2)) | 1.77
C=C(C)[C@@H]1CC[C@]2(C(=O)O)CC[C@]3(C)C(CCC4[C@@]5(C)C=C(c6ccco6)C(=O)C(C)(C)C5CC[C@]43C)C12 (stereo partly drawn) [Compound 11a, 2-(Furan-2-yl)-3-oxolupa-1,20(29)-dien-28-oic acid] | 6.3 µM | 14 µM | 13.7 µM | 11 µM | 11.4 µM | 12 µM | 12.4 µM | inhibit the endogenous Gli1 protein level in a dose-dependent manner | 103% | 100% | 95% | 68.5% | 0.44 ×10⁻⁶ cm/s | Yes | 2.33
